Target: T1, PIP4K2C (Homo sapiens, UniProt Q8TBX8)
T1 sequence (Q8TBX8 1-421): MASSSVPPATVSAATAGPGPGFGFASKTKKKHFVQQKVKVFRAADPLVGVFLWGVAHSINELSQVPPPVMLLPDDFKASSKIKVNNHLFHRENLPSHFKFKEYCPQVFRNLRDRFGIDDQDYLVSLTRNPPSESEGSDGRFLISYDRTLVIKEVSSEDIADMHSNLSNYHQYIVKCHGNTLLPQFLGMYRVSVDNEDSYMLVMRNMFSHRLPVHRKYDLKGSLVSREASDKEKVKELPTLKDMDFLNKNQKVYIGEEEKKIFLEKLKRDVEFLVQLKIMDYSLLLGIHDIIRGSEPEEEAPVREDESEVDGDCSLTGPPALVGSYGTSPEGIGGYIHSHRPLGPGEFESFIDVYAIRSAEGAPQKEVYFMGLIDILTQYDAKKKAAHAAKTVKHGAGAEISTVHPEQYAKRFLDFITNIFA
Experiment: Enzyme Binding Assay (KINOMEscan): active site-directed competition binding to an immobilized ligand
Set-up: purchased Eurofins DiscoverX, San Diego, CA 87-0007-1094
Conditions: 11-point dose response, duplicate, top concentration 5 micromolar; read-out: Pip4k2c Kd: IC50
How it was run: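 IC50 values come from Hill-equation fits (Levenberg-Marquardt) to 11-point duplicate titrations starting at 5 micromolar. Read-out is competition of compound with an immobilized ligand for the kinase active site.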

Row | Compound | IC50 [µM]
1 | CNC(=O)[C@H]1CC[C@@H](Nc2ncc(Cl)c(-c3cnn(C4CCCCC4)c3)n2)CC1 [Compound 108, cis-(1s,4s)-4-((5-chloro-4-(1-cyclohexyl-1H-pyrazol-4-yl)pyrimidin-2-yl)amino)-N-methylcyclohexane-1-carboxamide] | 1 to 5
2 | NC(=O)[C@H]1CC[C@H](Nc2ncc(Cl)c(-c3cccc(-c4ccccc4)c3)n2)CC1 [Compound 19, trans-4-((4-([1,1′-biphenyl]-3-yl)-5-chloropyrimidin-2-yl)amino)cyclohexane-1-carboxamide] | < 0.5
3 | CC(=O)N1CCC(Nc2ncc(F)c(-c3cccc(N4CCC[C@H](O)C4)c3)n2)CC1 [Compound 210, (S)-1-(4-((5-fluoro-4-(3-(3-hydroxypiperidin-1-yl)phenyl)pyrimidin-2-yl)amino)piperidin-1-yl)ethan-1-one] | < 0.5
4 | CC(=O)N[C@H]1CC[C@H](Nc2ncc(F)c(-c3cccc(N4CCCC4=O)c3)n2)CC1 [Compound 248, trans-N-(4-((5-fluoro-4-(3-(2-oxopyrrolidin-1-yl)phenyl)pyrimidin-2-yl)amino)cyclohexyl)acetamide] | < 0.5
5 | CNC(=O)[C@H]1CC[C@H](Nc2ncc(Cl)c(-c3cnn(-c4ccc(F)cc4)c3)n2)CC1 [Compound 134, trans-(1r,4r)-4-((5-chloro-4-(1-(4-fluorophenyl)-1H-pyrazol-4-yl)pyrimidin-2-yl)amino)-N-methylcyclohexane-1-carboxamide] | < 0.5
6 | CC(=O)N[C@H]1CC[C@@H](Nc2ncc(Cl)c(-c3cccc(-c4ccc(F)cc4)n3)n2)CC1 [Compound 130, cis-N-((1s,4s)-4-((5-chloro-4-(6-(4-fluorophenyl)pyridin-2-yl)pyrimidin-2-yl)amino)cyclohexyl)acetamide] | < 0.5
7 | CC(=O)N[C@H]1CC[C@H](Nc2ncc(F)c(-c3cccc(N4CCCCC4)c3)n2)CC1 [Compound 616, trans-N-(4-((5-fluoro-4-(3-(piperidin-1-yl)phenyl)pyrimidin-2-yl)amino)cyclohexyl)acetamide] | < 0.5
8 | CC(=O)N1CCC(Nc2ncc(F)c(N3CCCC(c4ccc[nH]c4=O)C3)n2)CC1 (stereo not shown) [Compound 196, 3-[1-[2-[(1-acetyl-4-piperidyl)amino]-5-fluoro-pyrimidin-4-yl]-3-piperidyl]-1H-pyridin-2-one] | < 0.5
9 | CC(=O)N[C@H]1CC[C@H](Nc2ncc(Cl)c(-c3cnn(-c4ccc[nH]c4=O)c3)n2)CC1 [Compound 149, trans-N-((1r,4r)-4-((5-chloro-4-(1-(2-oxo-1,2-dihydropyridin-3-yl)-1H-pyrazol-4-yl)pyrimidin-2-yl)amino)cyclohexyl)acetamide] | < 0.5
10 | NC(=O)[C@H]1CC[C@H](Nc2ncc(F)c(-c3cccc(C4(O)COC4)c3)n2)CC1 [Compound 181, trans-4-((5-fluoro-4-(3-(3-hydroxyoxetan-3-yl)phenyl)pyrimidin-2-yl)amino)cyclohexane-1-carboxamide] | < 0.5
11 | NC(=O)[C@H]1CC[C@H](Nc2ncc(F)c(-c3cccc(-n4ccccc4=O)n3)n2)CC1 [Compound 617, trans-4-((5-fluoro-4-(2-oxo-2H-[1,2′-bipyridin]-6′-yl)pyrimidin-2-yl)amino)cyclohexane-1-carboxamide] | < 0.5
12 | CC(=O)N1CCC[C@H](Nc2ncc(Cl)c(-c3cccc(-c4ccc[nH]c4=O)c3)n2)C1 [Compound 152, (S)-3-(3-(2-((1-acetylpiperidin-3-yl)amino)-5-chloropyrimidin-4-yl)phenyl)pyridin-2(1H)-one] | < 0.5
13 | NC(=O)[C@H]1CC[C@H](Nc2ncc(F)c(-c3ccnc(N4CCOCC4=O)c3)n2)CC1 [Compound 273, trans-4-((5-fluoro-4-(2-(3-oxomorpholino)pyridin-4-yl)pyrimidin-2-yl)amino)cyclohexane-1-carboxamide] | < 0.5
14 | CC(=O)N[C@H]1CC[C@H](Nc2ncc(Cl)c(-c3cnn(-c4cc[nH]c(=O)c4)c3)n2)CC1 [Compound 147, trans-N-((1r,4r)-4-((5-chloro-4-(1-(2-oxo-1,2-dihydropyridin-4-yl)-1H-pyrazol-4-yl)pyrimidin-2-yl)amino)cyclohexyl)acetamide] | < 0.5
15 | CC(=O)N[C@@H]1CCC[C@@H](Nc2ncc(Cl)c(-c3cccc(-c4ccccc4)c3)n2)C1 (relative stereo) [Compound 34, trans-N-(3-((4-([1,1′-biphenyl]-3-yl)-5-chloropyrimidin-2-yl)amino)cyclohexyl)acetamide] | < 0.5
16 | CC(=O)N1CCC(Nc2ncc(F)c(-c3cccc(N4CCC[C@@H](O)C4)c3)n2)CC1 [Compound 209, (R)-1-(4-((5-fluoro-4-(3-(3-hydroxypiperidin-1-yl)phenyl)pyrimidin-2-yl)amino)piperidin-1-yl)ethan-1-one] | < 0.5

Row | Compound | IC50 [µM]
17 | CC(C)(O)c1cc(-c2nc(N[C@H]3CC[C@H](C(N)=O)CC3)ncc2F)ccn1 [Compound 242, trans-4-((5-fluoro-4-(2-(2-hydroxypropan-2-yl)pyridin-4-yl)pyrimidin-2-yl)amino)cyclohexane-1-carboxamide] | < 0.5
18 | NC(=O)[C@H]1CC[C@H](Nc2ncc(F)c(-c3cccc(-c4ccc[nH]c4=O)c3)n2)CC1 [Compound 254, trans-(1r,4r)-4-((5-fluoro-4-(3-(2-oxo-1,2-dihydropyridin-3-yl)phenyl)pyrimidin-2-yl)amino)cyclohexane-1-carboxamide] | < 0.5
19 | NC(=O)[C@H]1CC[C@H](Nc2ncc(F)c(-c3cccc(C4(O)CCC4)n3)n2)CC1 [Compound 620, trans-4-((5-fluoro-4-(6-(1-hydroxycyclobutyl)pyridin-2-yl)pyrimidin-2-yl)amino)cyclohexane-1-carboxamide] | < 0.5
20 | CC(=O)N[C@H]1CC[C@H](Nc2ncc(F)c(N3CCC[C@H](C(=O)NC4CC4)C3)n2)CC1 [Compound 198, trans-(S)-1-(2-((4-acetamidocyclohexyl)amino)-5-fluoropyrimidin-4-yl)-N-cyclopropylpiperidine-3-carboxamide] | 1 to 5
21 | CC(=O)N[C@H]1CC[C@@H](Nc2ncc(Cl)c(-c3cnn(C4CC4)c3)n2)CC1 [Compound 99, cis-N-((1s,4s)-4-((5-chloro-4-(1-cyclopropyl-1H-pyrazol-4-yl)pyrimidin-2-yl)amino)cyclohexyl)acetamide] | 0.5 to 1
22 | CC(=O)N[C@H]1CC[C@H](Nc2ncc(F)c(-c3cccc(C4CC4)c3)n2)CC1 [Compound 619, trans-N-((1r,4r)-4-((4-(3-cyclopropylphenyl)-5-fluoropyrimidin-2-yl)amino)cyclohexyl)acetamide] | < 0.5
23 | CC(=O)N1CCC(Nc2ncc(Cl)c(C3CCN(C(=O)c4ccc(F)cc4)C3)n2)CC1 (stereo not shown) [Compound 127, 1-(4-((5-chloro-4-(1-(4-fluorobenzoyl)pyrrolidin-3-yl)pyrimidin-2-yl)amino)piperidin-1-yl)ethan-1-one] | 0.5 to 1
24 | CC(=O)N[C@H]1CC[C@H](Nc2ncc(F)c(-c3ccnc(N4CCCOC4=O)c3)n2)CC1 [Compound 266, trans-N-(4-((5-fluoro-4-(2-(2-oxo-1,3-oxazinan-3-yl)pyridin-4-yl)pyrimidin-2-yl)amino)cyclohexyl)acetamide] | < 0.5
25 | CNC(=O)[C@H]1CC[C@@H](Nc2ncc(Cl)c(-c3cnn(-c4ccc(=O)[nH]c4)c3)n2)CC1 [Compound 163, cis-(1s,4s)-4-((5-chloro-4-(1-(6-oxo-1,6-dihydropyridin-3-yl)-1H-pyrazol-4-yl)pyrimidin-2-yl)amino)-N-methylcyclohexane-1-carboxamide] | 0.5 to 1
26 | CC(=O)N[C@H]1CC[C@H](Nc2ncc(F)c(N3CCC[C@@H](C(=O)NC4CC4)C3)n2)CC1 [Compound 197, trans-(R)-1-(2-((4-acetamidocyclohexyl)amino)-5-fluoropyrimidin-4-yl)-N-cyclopropylpiperidine-3-carboxamide] | 1 to 5
27 | NC(=O)[C@H]1CC[C@H](Nc2ncc(F)c(-c3ccnc(N4CCCOC4=O)c3)n2)CC1 [Compound 622, trans-4-[[5-fluoro-4-[2-(2-oxo-1,3-oxazinan-3-yl)-4-pyridyl]pyrimidin-2-yl]amino]cyclohexanecarboxamide] | < 0.5
28 | NC(=O)[C@H]1CC[C@H](Nc2ncc(F)c(-c3cccc(-c4ccc(=O)[nH]c4)c3)n2)CC1 [Compound 229, trans-4-((5-fluoro-4-(3-(6-oxo-1,6-dihydropyridin-3-yl)phenyl)pyrimidin-2-yl)amino)cyclohexane-1-carboxamide] | < 0.5
29 | NC(=O)[C@@H]1CCC[C@H](Nc2ncc(F)c(-c3cccc(-c4ccc[nH]c4=O)c3)n2)C1 (relative stereo) [Compound 150, cis-3-((5-fluoro-4-(3-(2-oxo-1,2-dihydropyridin-3-yl)phenyl)pyrimidin-2-yl)amino)cyclohexane-1-carboxamide] | < 0.5
30 | CNC(=O)[C@H]1CC[C@H](Nc2ncc(Cl)c(-c3cnn(-c4cc[nH]c(=O)c4)c3)n2)CC1 [Compound 165, trans-(1r,4r)-4-((5-chloro-4-(1-(2-oxo-1,2-dihydropyridin-4-yl)-1H-pyrazol-4-yl)pyrimidin-2-yl)amino)-N-methylcyclohexane-1-carboxamide] | 0.5 to 1
31 | CC(=O)N[C@H]1CC[C@H](Nc2ncc(F)c(-c3cccc(C4COC4)c3)n2)CC1 [Compound 175, N-(trans-4-((5-fluoro-4-(3-(oxetan-3-yl)phenyl)pyrimidin-2-yl)amino)cyclohexyl)acetamide] | < 0.5

Source: US20260355196A1, “INHIBITORS AND DEGRADERS OF PIP4K PROTEIN” (Larkspur Biosciences, Inc., priority 2023, published 2026)
